ChEMBL document CHEMBL4673373, “Discovery and optimization of substituted oxalamides as novel heme-displacing IDO1 inhibitors” (Bioorg Med Chem Lett, 2021)

What was measured:
[1] = target: T1, Indoleamine 2,3-dioxygenase 1 (Homo sapiens, UniProt P14902); assay: Inhibition of IDO1 in human SKOV3 cells; type: cell-based, SK-OV-3
Target sequence in this assay (P14902 whole entry): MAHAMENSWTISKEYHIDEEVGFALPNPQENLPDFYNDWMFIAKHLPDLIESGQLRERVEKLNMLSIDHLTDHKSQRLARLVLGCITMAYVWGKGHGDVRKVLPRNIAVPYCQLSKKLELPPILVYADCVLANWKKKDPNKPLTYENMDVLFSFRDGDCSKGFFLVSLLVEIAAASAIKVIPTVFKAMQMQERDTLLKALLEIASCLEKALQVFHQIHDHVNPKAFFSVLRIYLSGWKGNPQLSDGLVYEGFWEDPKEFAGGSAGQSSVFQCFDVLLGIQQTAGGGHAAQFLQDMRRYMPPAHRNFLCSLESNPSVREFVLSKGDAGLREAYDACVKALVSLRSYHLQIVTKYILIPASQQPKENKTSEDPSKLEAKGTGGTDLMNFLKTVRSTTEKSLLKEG

[2] = target: Tryptophan 2,3-dioxygenase (Homo sapiens, UniProt P48775); assay: Inhibition of TDO in HEK cells; type: cell-based
[3] = Metabolic stability in mouse liver microsomes assessed as intrinsic clearance; type: ADME, Microsome; details: read-out: CLH
[4] = Metabolic stability in human liver microsomes assessed as intrinsic clearance; type: ADME, Microsome; details: read-out: CLH
[5] = AUC(0 to 8 hrs) in mouse at 10 mg/kg, po; type: ADME, organism-based; set-up: route oral, time 8 hrs, dose 10 mg/kg; details: in vivo
[6] = target: T1, Indoleamine 2,3-dioxygenase 1; assay: Inhibition of IDO1 (unknown origin) by enzymatic assay
Target sequence in this assay (P14902 whole entry): as above

[7] = target: T1, Indoleamine 2,3-dioxygenase 1; assay: Binding affinity to IDO1 (unknown origin) assessed as change in melting temperature at 5 uM by thermal shift assay
Target sequence in this assay (P14902 whole entry, looked up): as the sequence (P14902 whole entry) above

hERG (KCNH2) [8] = target: T2, hERG (KCNH2) (Homo sapiens, UniProt Q12809); assay: Inhibition of human ERG at 10 uM relative to control
[9] = Plasma protein binding in mouse; type: ADME, cell-free; details: read-out: PPB (converted)
hERG (KCNH2) [10] = target: T2, hERG (KCNH2); assay: Inhibition of human ERG assessed as reduction in channel tail current at 10 uM by patch clamp assay relative to control
Cytochrome P450 2D6 = Cytochrome P450 2D6 (Homo sapiens, UniProt P10635); assay: Inhibition of CYP2D6 (unknown origin); type: ADME
Cytochrome P450 2C9 = Cytochrome P450 2C9 (Homo sapiens, UniProt P11712); assay: Inhibition of CYP2C9 (unknown origin); type: ADME
[11] = Cmax in mouse at 10 mg/kg, po; type: ADME, organism-based; set-up: route oral, dose 10 mg/kg; details: in vivo
[12] = Half life in mouse at 10 mg/kg, po; type: ADME, organism-based; details: in vivo
[13] = Plasma protein binding in human; type: ADME, cell-free; details: read-out: PPB (converted)
Cytochrome P450 2C8 = target: T3, Cytochrome P450 2C8 (Homo sapiens, UniProt P10632); assay: Inhibition of CYP2C8 (unknown origin); type: ADME
T3 sequence (P10632 whole entry): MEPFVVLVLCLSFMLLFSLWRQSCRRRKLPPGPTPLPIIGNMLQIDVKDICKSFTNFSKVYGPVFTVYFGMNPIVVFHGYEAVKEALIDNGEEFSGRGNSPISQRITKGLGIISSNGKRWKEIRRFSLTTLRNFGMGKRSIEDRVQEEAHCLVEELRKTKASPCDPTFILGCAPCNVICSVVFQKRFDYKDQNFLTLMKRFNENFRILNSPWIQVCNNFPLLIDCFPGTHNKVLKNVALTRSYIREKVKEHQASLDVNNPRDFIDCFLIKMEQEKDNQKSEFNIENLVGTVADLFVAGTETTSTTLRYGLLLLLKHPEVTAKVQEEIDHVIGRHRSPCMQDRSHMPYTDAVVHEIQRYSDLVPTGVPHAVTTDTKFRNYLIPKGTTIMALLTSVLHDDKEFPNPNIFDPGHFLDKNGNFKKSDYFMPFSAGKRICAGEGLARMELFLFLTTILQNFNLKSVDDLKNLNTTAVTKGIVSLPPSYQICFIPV

[14] = target: T1, Indoleamine 2,3-dioxygenase 1; assay: Inhibition of IDO1 in human whole blood; type: tissue-based
Target sequence in this assay (P14902 whole entry): as the sequence (P14902 whole entry) above

Tryptophan 2,3-dioxygenase, sequence (P48775 whole entry): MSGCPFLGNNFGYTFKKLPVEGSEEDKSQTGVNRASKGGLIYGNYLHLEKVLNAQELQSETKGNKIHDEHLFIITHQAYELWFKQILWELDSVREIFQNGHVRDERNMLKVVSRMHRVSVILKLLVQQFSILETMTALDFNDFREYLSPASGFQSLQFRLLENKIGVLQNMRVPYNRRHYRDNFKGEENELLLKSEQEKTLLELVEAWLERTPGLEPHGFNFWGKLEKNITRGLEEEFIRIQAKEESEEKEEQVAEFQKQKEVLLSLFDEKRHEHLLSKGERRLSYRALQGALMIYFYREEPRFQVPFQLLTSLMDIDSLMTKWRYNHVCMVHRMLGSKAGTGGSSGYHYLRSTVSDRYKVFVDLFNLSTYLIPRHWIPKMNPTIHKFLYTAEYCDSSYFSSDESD
T2 sequence (Q12809 whole entry): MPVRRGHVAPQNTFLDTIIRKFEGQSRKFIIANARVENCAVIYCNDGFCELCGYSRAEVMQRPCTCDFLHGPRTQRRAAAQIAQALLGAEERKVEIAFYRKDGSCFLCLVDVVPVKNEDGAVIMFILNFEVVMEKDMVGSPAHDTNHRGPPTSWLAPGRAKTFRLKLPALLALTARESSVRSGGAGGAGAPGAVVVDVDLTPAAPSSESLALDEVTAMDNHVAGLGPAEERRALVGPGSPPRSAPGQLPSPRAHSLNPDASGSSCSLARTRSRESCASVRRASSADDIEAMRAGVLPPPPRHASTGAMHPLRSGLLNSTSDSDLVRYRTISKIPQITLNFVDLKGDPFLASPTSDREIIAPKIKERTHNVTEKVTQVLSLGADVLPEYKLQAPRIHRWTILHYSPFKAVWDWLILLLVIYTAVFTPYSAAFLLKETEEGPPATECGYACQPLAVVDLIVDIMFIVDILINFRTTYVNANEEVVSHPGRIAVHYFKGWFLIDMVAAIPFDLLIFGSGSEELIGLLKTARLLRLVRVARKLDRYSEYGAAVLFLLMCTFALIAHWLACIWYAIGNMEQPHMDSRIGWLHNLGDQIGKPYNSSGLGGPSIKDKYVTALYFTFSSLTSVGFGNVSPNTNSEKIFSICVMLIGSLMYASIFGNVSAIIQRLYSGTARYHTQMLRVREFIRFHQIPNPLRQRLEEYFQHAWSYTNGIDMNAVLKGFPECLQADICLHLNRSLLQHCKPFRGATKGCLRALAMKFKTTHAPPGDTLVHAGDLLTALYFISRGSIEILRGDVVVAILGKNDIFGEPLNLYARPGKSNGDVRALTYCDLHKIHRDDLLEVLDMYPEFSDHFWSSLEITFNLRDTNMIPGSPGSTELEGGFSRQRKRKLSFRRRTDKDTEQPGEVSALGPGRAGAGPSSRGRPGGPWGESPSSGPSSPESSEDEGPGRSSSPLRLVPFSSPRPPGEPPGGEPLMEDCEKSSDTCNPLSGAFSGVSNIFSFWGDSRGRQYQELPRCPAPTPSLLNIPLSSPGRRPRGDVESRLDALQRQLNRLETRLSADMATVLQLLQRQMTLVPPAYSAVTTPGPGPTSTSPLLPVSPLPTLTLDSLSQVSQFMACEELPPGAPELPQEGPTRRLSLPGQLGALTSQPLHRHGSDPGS
Cytochrome P450 2C9, sequence (P11712 whole entry): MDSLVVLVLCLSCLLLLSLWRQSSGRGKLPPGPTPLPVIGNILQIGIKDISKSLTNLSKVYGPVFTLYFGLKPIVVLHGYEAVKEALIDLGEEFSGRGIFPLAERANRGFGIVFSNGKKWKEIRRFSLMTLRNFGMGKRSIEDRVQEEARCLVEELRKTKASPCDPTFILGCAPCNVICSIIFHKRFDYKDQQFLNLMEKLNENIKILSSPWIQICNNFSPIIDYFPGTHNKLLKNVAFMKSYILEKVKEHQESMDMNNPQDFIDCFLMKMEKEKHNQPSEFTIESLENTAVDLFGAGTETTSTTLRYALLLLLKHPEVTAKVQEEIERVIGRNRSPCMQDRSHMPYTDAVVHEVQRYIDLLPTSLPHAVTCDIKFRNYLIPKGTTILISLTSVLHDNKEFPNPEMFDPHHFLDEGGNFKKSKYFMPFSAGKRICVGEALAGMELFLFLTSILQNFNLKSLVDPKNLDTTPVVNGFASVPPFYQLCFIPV
Cytochrome P450 2D6, sequence (P10635 whole entry): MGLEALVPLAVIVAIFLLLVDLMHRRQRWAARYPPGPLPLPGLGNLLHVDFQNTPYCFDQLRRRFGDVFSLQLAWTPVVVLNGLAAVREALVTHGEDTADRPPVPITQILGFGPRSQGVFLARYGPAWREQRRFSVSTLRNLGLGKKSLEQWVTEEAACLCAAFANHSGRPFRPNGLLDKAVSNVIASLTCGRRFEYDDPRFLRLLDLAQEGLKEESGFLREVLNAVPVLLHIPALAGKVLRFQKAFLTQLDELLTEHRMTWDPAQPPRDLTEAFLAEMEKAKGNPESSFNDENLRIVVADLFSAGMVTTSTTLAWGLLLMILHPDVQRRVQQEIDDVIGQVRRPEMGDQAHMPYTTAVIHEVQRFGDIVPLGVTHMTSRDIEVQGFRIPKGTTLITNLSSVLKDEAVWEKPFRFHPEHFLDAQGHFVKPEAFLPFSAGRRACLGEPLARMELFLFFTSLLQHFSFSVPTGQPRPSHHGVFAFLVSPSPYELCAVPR

SMILES | IC50 [1] | IC50 [2] | microsomal CLint [3] | microsomal CLint [4] | inhibition at 10 µM (hERG (KCNH2) [8]) | also measured
O=C(Nc1ccc(Cl)cc1)C(=O)N1CCCC2(CC1)COc1cc(C(F)(F)F)ccc12 (centres undefined) | 0.7 µM | 37 µM |  |  |  | 
O=C(Nc1ccc(Cl)cn1)C(=O)N1CCC2(CC1)COc1ccccc12 | 0.49 µM |  |  |  |  | 
C[C@@H](C(=O)Nc1ccc(Cl)cc1)[C@H]1CC[C@@H](c2ccnc3ccc(F)cc32)CC1 |  |  | 386 µL/min/mg | 21.3 µL/min/mg |  | AUC(0-t) at 8 h [5]: 9.3 µM·h
O=C(Nc1ccc(Cl)cc1)C(=O)N1CCC(c2ccccc2)CC1 | 0.09 µM |  |  |  |  | IC50 [6]: > 60 µM; ΔTm [7]: 12 °C
O=C(Nc1ccc(Cl)cn1)C(=O)N1CCC2(CC1)COc1cc(C(F)(F)F)ccc12 | 0.073 µM | 6.4 µM | 63 µL/min/mg | 6 µL/min/mg |  | 
O=C(Nc1ccc(C(F)(F)F)cc1)C(=O)N1CCC(c2ccnc3ccc(F)cc23)CC1 | 0.09 µM | 9.5 µM | 16 µL/min/mg | 5.5 µL/min/mg | 77% | 
O=C(Nc1ccc(Cl)cc1)C(=O)N1CCC(c2ccnc3ccc(F)cc23)CC1 |  | 6.9 µM | 97 µL/min/mg | 9 µL/min/mg | 64% | fraction unbound [9]: 0.011; inhibition at 10 µM (hERG (KCNH2) [10]): 70%; IC50 (Cytochrome P450 2D6): > 10 µM; IC50 (Cytochrome P450 2C9): 6.1 µM; Cmax [11]: 5.1 µM; half-life [12]: 1.8 h; ΔTm [7]: 14 °C; fraction unbound [13]: 0.003; AUC(0-t) at 8 h [5]: 19.3 µM·h; IC50 (Cytochrome P450 2C8): 4.7 µM
O=C(Nc1ccc(C(F)F)cc1)C(=O)N1CCC(c2ccnc3ccc(F)cc23)CC1 | 0.021 µM | 5.8 µM | 76 µL/min/mg | 17 µL/min/mg |  | 
O=C(Nc1ccc(Cl)cc1F)C(=O)N1CCC=C(c2ccnc3ccc(F)cc23)CC1 | 0.005 µM | 16 µM | 254 µL/min/mg | 98 µL/min/mg |  | 
O=C(Nc1ccc(Cl)cc1F)C(=O)N1CCCC(c2ccnc3ccc(F)cc23)CC1 (racemic) | 0.008 µM | 5.9 µM | 202 µL/min/mg | 108 µL/min/mg | 66% | 
N#Cc1ccc(NC(=O)C(=O)N2CCC(c3ccnc4ccc(F)cc34)CC2)cc1 | 0.036 µM | 5.5 µM | 28 µL/min/mg | 11 µL/min/mg | 61% | 
O=C(Nc1ccc(Cl)cc1)C(=O)N1CCC(c2ccnc3ccc(Cl)cc23)CC1 | 0.019 µM | 2.5 µM | 72 µL/min/mg | 11 µL/min/mg |  | 
O=C(Nc1ccc(Cl)cc1)C(=O)N1CCC2(CC1)COc1cc(C(F)(F)F)ccc12 |  | 21 µM | 14 µL/min/mg | < 1 µL/min/mg | 86% | 
O=C(Nc1ccc(Cl)cc1)C(=O)N1CCC(c2ccnc3cc(F)ccc23)CC1 | 0.019 µM |  | 55 µL/min/mg | 26 µL/min/mg | 85% | 
O=C(Nc1ccc(Cl)cc1)C(=O)N1CCC(c2ccnc3ccc(F)cc23)C(F)(F)C1 (racemic) | 0.009 µM | 6.3 µM | 52 µL/min/mg | 11.6 µL/min/mg | 15% | 
O=C(Nc1ccc(Cl)cc1)C(=O)N1CCC2(CC1)COc1cc(C(F)F)ccc12 | 0.03 µM | 30 µM | 167 µL/min/mg | 20 µL/min/mg | 71% | 

SMILES | IC50 [1] | IC50 [2] | microsomal CLint [3] | microsomal CLint [4] | inhibition at 10 µM (hERG (KCNH2) [8]) | also measured
CS(=O)(=O)NCCCNC(=O)/C(=N/O)Nc1ccc(F)c(Br)c1 | 0.34 µM |  |  |  |  | IC50 [6]: 5 µM
O=C(Nc1ccc(F)c(Cl)c1)C(=O)N1CCC(c2ccccc2)CC1 | 1.8 µM |  |  |  |  | IC50 [6]: > 60 µM; ΔTm [7]: 1 °C
NC(=O)/C(=N/O)Nc1ccc(F)c(Cl)c1 | 24 µM |  |  |  |  | IC50 [6]: 78 µM
O=C(Nc1ccc(Cl)cc1)C(=O)N1CC[C@@H](c2ccnc3ccc(F)cc23)[C@H](O)C1 (stereo in doubt) | 0.05 µM | 15.3 µM | 18 µL/min/mg | 5 µL/min/mg | 10% | 
CC1(C)CN(C(=O)C(=O)Nc2ccc(Cl)cc2)CCC1c1ccnc2ccc(F)cc12 (racemic) | 0.023 µM | 4.5 µM | 72.9 µL/min/mg | 28.8 µL/min/mg | 71% | 
O=C(Nc1ccc(Cl)cc1)C(=O)N1CC[C@H](c2ccnc3ccc(F)cc23)[C@@H](O)C1 (stereo in doubt) | 0.0061 µM | 14 µM | 17 µL/min/mg | 4 µL/min/mg | 18% | fraction unbound [9]: 0.02; inhibition at 10 µM (hERG (KCNH2) [10]): 34%; Cmax [11]: 10 µM; half-life [12]: 1.4 h; ΔTm [7]: 13 °C; fraction unbound [13]: 0.011; IC50 [14]: 0.33 µM; AUC(0-t) at 8 h [5]: 27.1 µM·h; IC50 (Cytochrome P450 2C8): 9.5 µM
N#Cc1ccc2nccc(C3CCN(C(=O)C(=O)Nc4ccc(Cl)cc4)CC3)c2c1 | 0.118 µM | 6.1 µM |  |  |  | 
NS(=O)(=O)NCCCNC(=O)/C(=N/O)Nc1ccc(F)c(Cl)c1 | 1.2 µM |  |  |  |  | IC50 [6]: 10.3 µM
O=C(Nc1ccc(Cl)cn1)C(=O)N1CCC(c2ccnc3ccnn23)CC1 | 0.433 µM |  |  |  |  | 
O=C(/C(=N/O)Nc1ccc(F)c(Cl)c1)N1CCC(c2ccccc2)CC1 | 14 µM |  |  |  |  | IC50 [6]: > 60 µM
O=C(Nc1ccc(Cl)cc1)C(=O)N1CC[C@@H](c2ccnc3ccc(F)cc23)[C@@H](O)C1 (stereo in doubt) | 3 µM | 37 µM |  |  |  | 
O=C(Nc1ccc(Cl)cc1)C(=O)N1CC[C@H](c2ccnc3ccc(F)cc23)[C@H](O)C1 (stereo in doubt) | 0.11 µM | 17.2 µM |  |  |  | 
O=C(Nc1ccc(Cl)cc1F)C(=O)N1CCC(c2ccnc3ccc(F)cc23)CC1 | 0.007 µM | 6.7 µM | 108 µL/min/mg | 10 µL/min/mg |  | 
O=C(Nc1ccc(Cl)cn1)C(=O)N1CCC(c2cccc(Cl)c2Cl)CC1 | 0.245 µM |  | 77 µL/min/mg | 40 µL/min/mg |  | 
O=C(Nc1ccc(Cl)cn1)C(=O)N1CCC(c2ccnc(C(F)(F)F)c2Cl)CC1 | 0.301 µM | 22 µM | 36 µL/min/mg | 3.5 µL/min/mg |  | 
O=C(Nc1ccc(Cl)cn1)C(=O)N1CCC(c2ccnc3ccc(F)cc23)CC1 | 0.07 µM | 5.9 µM | 112 µL/min/mg | 23 µL/min/mg |  | 
